Laboratory results as given in paper PMC10709440, “High-throughput ligand profile characterization in novel cell lines expressing seven heterologous insect olfactory receptors for the detection of volatile plant biomarkers” (Scientific Reports, 2023).

Legend:
OR13a = tested on: OR13a; design: method as in earlier work; details: DoOR database value; ref DoOR; cited from earlier work
Drosophila OR10a = molecular target: T1, Drosophila OR10a (Drosophila melanogaster, UniProt Q9VYZ1); test: Calcium ion fluorescence (GCaMP6) assay, OR10a stable HEK293 cell line; format: cell-based; details: 50 µM, OR10a clone G5, single plate 2019.12.05
T1 construct: expressed in transfected cells
T1 sequence (Q9VYZ1 1-406): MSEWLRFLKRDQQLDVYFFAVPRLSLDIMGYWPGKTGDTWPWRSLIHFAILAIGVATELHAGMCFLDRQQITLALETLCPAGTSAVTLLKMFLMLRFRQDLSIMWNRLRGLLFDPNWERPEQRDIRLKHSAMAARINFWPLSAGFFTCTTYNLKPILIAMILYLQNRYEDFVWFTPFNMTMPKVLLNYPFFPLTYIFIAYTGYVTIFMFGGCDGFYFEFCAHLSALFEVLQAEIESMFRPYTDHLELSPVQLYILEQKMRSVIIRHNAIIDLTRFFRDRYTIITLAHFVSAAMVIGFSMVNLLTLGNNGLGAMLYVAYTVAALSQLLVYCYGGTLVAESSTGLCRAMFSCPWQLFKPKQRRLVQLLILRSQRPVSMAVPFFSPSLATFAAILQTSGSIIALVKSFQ
T1 sequence (Q9VNB5 1-486 partner): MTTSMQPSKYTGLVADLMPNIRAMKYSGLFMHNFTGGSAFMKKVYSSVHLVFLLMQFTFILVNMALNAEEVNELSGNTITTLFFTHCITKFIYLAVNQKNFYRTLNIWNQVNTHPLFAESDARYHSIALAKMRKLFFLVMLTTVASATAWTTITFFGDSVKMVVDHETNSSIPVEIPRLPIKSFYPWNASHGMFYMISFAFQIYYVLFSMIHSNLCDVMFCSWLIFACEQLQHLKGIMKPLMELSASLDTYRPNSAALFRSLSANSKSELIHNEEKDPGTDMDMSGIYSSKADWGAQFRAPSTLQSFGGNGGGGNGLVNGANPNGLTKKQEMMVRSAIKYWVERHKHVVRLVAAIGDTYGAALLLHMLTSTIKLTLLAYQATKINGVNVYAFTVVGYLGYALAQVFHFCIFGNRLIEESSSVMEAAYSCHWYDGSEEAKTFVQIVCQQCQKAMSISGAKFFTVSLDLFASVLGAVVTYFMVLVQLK
Experimental: (§1) These VUAA1 normalized ∆F values were used to compare the different receptors and ligands.
(§2) The concentration-dependent effect of the reference ligands on their cognate cell lines was examined in more detail. Twelve different ligand concentrations were measured on each cell line in an overall 0.01 μM to 100 μM concentration range with 5 repetitions with three technical replicates each time.
(§3) Twelve thousand to 18,000 cells were plated into each well of a black wall, transparent bottom 384-well microplate (Greiner) 48 h or 72 h before the measurements and were simultaneously treated with 1 μg/mL doxycycline. […] The plate has 24 columns, thus we could record responses in up to eight different cell lines in each plate. On the day of the experiment, the growth medium was replaced with 20 µL assay buffer/well (140 mM NaCl, 5 mM KCl, 2 mM CaCl2, 1 mM MgCl2, 5 mM HEPES-Na, 20 mM glucose, pH 7.3, 340 mOsm). […] Baseline fluorescence (F0) was recorded for 5 s, after which 7 µL VOC buffer (140 mM NaCl, 5 mM KCl, 2 mM CaCl2, 1 mM MgCl2, 5 mM HEPES-Na, 31 mM glucose, 0.1% DMSO, pH 7.3, 340 mOsm) was injected into each well in one row and the fluorescence response was recorded for an additional 30 s, at a rate of one read/sec. VOC solutions (VOC buffer with 4× concentration of the final measured VOC concentration, 9 µL/well was injected) were measured on the same wells in a second round with the same protocol. Each individual concentration of a specific VOC sample was recorded in three wells for the same cell line on the same microplate. The raw data were exported in xls file format, F0 and FMAX values, and the fluorescence intensity changes (∆F) were calculated in Excel (Microsoft) (Supplementary file Data summary.xlsx) using the following equation: ΔF=FMAX-F0/F0 (see also Fig. 1C). On each plate, we recorded the response of each cell line to 50 µM VUAA1. The average of these ∆F values of each cell line were used to calculate the VUAA1-normalized values for the rest of the plate, by dividing VOC response ∆F values by the average VUAA1 response ∆F value of the corresponding OR cell line. Each VOC-OR combination was measured three times as technical replicates. […] The average of these replicates were used as one ∆F and VUAA1-normalized ∆F in the following analysis.
(§4) In the next rows we tested the reference VOCs (or other VOCs known to activate the corresponding cell lines), in order to test if all cell lines are responsive. The remaining rows were used to test VOCs with unknown effect.
(§5) The recorded FMAX, F0, ∆F, VUAA1-normalized ∆F values, as well as the OR name, the name of the tested sample, and the final concentration for each well were copied into supplementary file Data summary.xlsx, that was used to summarize all the plates recorded. Here, the averages of the measurements were calculated for each receptor-VOC-concentration combination.

Drosophila OR47a = molecular target: T2, Drosophila OR47a (Drosophila melanogaster, UniProt P81921); test: Calcium ion fluorescence (GCaMP6) assay, OR47a stable HEK293 cell line; format: cell-based; details: OR47a cell line; assay buffer lacking Ca2+, and lacking Ca2+ and containing EGTA
T2 construct: expressed in transfected cells
T2 sequence (P81921 1-385): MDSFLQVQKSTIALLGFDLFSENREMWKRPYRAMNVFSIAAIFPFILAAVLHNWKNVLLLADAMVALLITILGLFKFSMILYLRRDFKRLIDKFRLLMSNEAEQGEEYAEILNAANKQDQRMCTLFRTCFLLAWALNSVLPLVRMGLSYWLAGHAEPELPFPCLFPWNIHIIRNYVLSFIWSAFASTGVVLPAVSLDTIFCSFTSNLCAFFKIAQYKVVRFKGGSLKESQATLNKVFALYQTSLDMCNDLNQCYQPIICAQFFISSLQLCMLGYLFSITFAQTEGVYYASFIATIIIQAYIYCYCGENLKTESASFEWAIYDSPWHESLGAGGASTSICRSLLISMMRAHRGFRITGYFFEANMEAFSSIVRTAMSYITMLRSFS
T2 sequence (Q9VNB5 1-486 partner): T1 sequence (Q9VNB5 1-486 partner)
Experimental: as §1, §2, §3, §4, §5

[1] = tested on: T3, OR cell lines (OR + ORCO); test: Maximum fluorescence change of the OR cell lines, long term stability testing / VUAA1 check; format: cell-based, Drosophila melanogaster
T3 construct: expressed in transfected cells
Experimental: as §1
Twelve thousand to 18,000 cells were plated into each well of a black wall, transparent bottom 384-well microplate (Greiner) 48 h or 72 h before the measurements and were simultaneously treated with 1 μg/mL doxycycline. […] The plate has 24 columns, thus we could record responses in up to eight different cell lines in each plate. On the day of the experiment, the growth medium was replaced with 20 µL assay buffer/well (140 mM NaCl, 5 mM KCl, 2 mM CaCl2, 1 mM MgCl2, 5 mM HEPES-Na, 20 mM glucose, pH 7.3, 340 mOsm). […] Baseline fluorescence (F0) was recorded for 5 s, after which 7 µL VOC buffer (140 mM NaCl, 5 mM KCl, 2 mM CaCl2, 1 mM MgCl2, 5 mM HEPES-Na, 31 mM glucose, 0.1% DMSO, pH 7.3, 340 mOsm) was injected into each well in one row and the fluorescence response was recorded for an additional 30 s, at a rate of one read/sec. VOC solutions (VOC buffer with 4× concentration of the final measured VOC concentration, 9 µL/well was injected) were measured on the same wells in a second round with the same protocol. Each individual concentration of a specific VOC sample was recorded in three wells for the same cell line on the same microplate. […] On each plate, we recorded the response of each cell line to 50 µM VUAA1. […] Each VOC-OR combination was measured three times as technical replicates. […]

ORCO = molecular target: T4, ORCO (Drosophila melanogaster, UniProt Q9VNB5); test: Origin of Ca2+ test, (GCaMP6-GSG)ORCO cell line; format: cell-based; details: assay buffer lacking Ca2+, and lacking Ca2+ and containing EGTA
T4 sequence (Q9VNB5 1-486): T1 sequence (Q9VNB5 1-486 partner)
From the text: We tested for the origin of the Ca^2+ ions on two cell lines, OR47a and (GCaMP6-GSG)ORCO, with assay buffer lacking Ca^2+ and assay buffer lacking Ca^2+ and containing EGTA.

| Structure (SMILES) | OR13a DoOR response (OR13a) | DF norm, all technical replicates (Drosophila OR10a) | DF norm, outlier technical replicates removed (Drosophila OR10a) | DF, outlier technical replicates removed (Drosophila OR10a) | DF, all technical replicates (Drosophila OR10a; xc+0.1%DMSO) | response in assay buffer lacking Ca2+ (Drosophila OR47a) | peaks of fluorescence intensity change ([1]; ORCO agonist VUAA1, highest over OR cell lines) | response of the cell lines to VUAA1 ([1]; all cell lines, including the four non-responding OR lines) | response in assay buffer lacking Ca2+ (ORCO) |
| --- | --- | --- | --- | --- | --- | --- | --- | --- | --- |
| CC(=O)CCC=C(C)C [6-methyl-5-hepten-2-one] | 0.44 |  |  |  |  |  |  |  |  |
| CCc1ccc(NC(=O)CSc2nnc(-c3cccnc3)n2CC)cc1 [VUAA1, reference compound] |  | 1 | 1 | 1.743 | 1.743 | Neither of the cell lines responded | ≤ 462% | responded | Neither of the cell lines responded |
